Experimental data taken from patent publication US20090018134A1, “Compounds - 945” (AstraZeneca AB, priority 2007, published 2009).

Biological target: T1, mTOR (Homo sapiens, UniProt P42345)
T1 construct: FLAG; made in house
Assay: In Vitro mTOR Kinase Assay (Echo), Test (a)(ii)
Type: biochemical
Conditions: table of enzyme assay Test (a)(ii); read-out: Test (a)(ii) IC50
In short: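 Enzyme: HEK293-expressed, FLAG-purified mTOR C-terminal fragment (aa 1362-2549). Rxn 2 h RT with biotinylated peptide, stopped with EDTA 50 mM/BSA/Tris pH 7.4. Detection: T389 phospho-antibody AlphaScreen, 680 nm excitation. IC50.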

T1 sequence (P42345 1362-2549): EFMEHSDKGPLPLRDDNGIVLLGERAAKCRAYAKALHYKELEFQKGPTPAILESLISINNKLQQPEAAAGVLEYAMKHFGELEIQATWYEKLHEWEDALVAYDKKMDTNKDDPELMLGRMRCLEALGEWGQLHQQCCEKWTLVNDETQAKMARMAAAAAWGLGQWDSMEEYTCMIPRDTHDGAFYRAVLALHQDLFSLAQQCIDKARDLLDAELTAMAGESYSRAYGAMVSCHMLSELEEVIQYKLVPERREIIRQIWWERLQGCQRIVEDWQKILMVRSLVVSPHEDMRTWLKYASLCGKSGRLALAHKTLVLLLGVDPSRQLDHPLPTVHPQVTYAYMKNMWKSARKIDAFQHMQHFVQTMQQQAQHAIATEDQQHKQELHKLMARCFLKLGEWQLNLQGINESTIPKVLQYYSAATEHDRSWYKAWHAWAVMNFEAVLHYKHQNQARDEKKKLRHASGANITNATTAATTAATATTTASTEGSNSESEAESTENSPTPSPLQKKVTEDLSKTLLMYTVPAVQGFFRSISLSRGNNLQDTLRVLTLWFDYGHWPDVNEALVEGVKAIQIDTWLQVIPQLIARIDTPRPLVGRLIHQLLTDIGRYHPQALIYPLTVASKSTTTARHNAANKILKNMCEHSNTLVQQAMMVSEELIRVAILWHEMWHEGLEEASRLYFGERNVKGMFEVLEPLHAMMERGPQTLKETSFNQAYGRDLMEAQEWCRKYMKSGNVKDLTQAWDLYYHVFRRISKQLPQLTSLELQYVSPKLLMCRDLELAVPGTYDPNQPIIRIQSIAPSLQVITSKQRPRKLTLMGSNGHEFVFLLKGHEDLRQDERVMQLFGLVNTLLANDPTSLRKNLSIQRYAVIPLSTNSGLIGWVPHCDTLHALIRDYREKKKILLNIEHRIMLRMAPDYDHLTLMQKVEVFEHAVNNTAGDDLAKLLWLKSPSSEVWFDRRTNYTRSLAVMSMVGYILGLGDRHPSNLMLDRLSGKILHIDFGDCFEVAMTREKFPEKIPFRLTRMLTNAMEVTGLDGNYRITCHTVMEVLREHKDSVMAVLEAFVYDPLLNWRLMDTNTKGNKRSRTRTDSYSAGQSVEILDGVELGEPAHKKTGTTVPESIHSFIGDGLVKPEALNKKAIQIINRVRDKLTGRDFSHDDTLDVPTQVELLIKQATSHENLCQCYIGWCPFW

IC50 [nM]	Structure (SMILES)
1.2	C[C@H]1COCCN1c1cc(C2(S(=O)(=O)C3CCCCC3)CC2)nc(-c2ccc(NC(=O)NCCO)cc2)n1 [Example 26d, 1-[4-[4-(1-cyclohexylsulfonylcyclopropyl)-6-[(3S)-3-methylmorpholin-4-yl]pyrimidin-2-yl]phenyl]-3-(2-hydroxyethyl)urea]
3.95	CNC(=O)Nc1ccc(-c2nc(N3CCOC[C@@H]3C)cc(C3(S(=O)(=O)C4CCCCC4)CC3)n2)cc1 [Example 26e, 1-[4-[4-(1-cyclohexylsulfonylcyclopropyl)-6-[(3S)-3-methylmorpholin-4-yl]pyrimidin-2-yl]phenyl]-3-methylurea]
4.57	C[C@H]1COCCN1c1cc(C2(S(=O)(=O)C3CCCCC3)CC2)nc(-c2ccc(NC(=O)NC(C)(C)CO)cc2)n1 [Example 26f, 1-[4-[4-(1-cyclohexylsulfonylcyclopropyl)-6-[(3S)-3-methylmorpholin-4-yl]pyrimidin-2-yl]phenyl]-3-(1-hydroxy-2-methylpropan-2-yl)urea]
7.46	C[C@H]1COCCN1c1cc(C2(S(=O)(=O)C3CCCCC3)CC2)nc(-c2ccc(NC(=O)NCCCO)cc2)n1 [Example 26g, 1-[4-[4-(1-cyclohexylsulfonylcyclopropyl)-6-[(3S)-3-methylmorpholin-4-yl]pyrimidin-2-yl]phenyl]-3-(3-hydroxypropyl)urea]
4	C[C@H]1COCCN1c1cc(C2(S(=O)(=O)C3CCCCC3)CC2)nc(-c2ccc(NC(=O)Nc3cnn(C)c3)cc2)n1 [Example 26h, 1-[4-[4-(1-cyclohexylsulfonylcyclopropyl)-6-[(3S)-3-methylmorpholin-4-yl]pyrimidin-2-yl]phenyl]-3-(1-methylpyrazol-4-yl)urea]
3.88	C[C@H]1COCCN1c1cc(C2(S(=O)(=O)c3ccc(Cl)cc3)CC2)nc(-c2ccc(NC(=O)NC3CCC3)cc2)n1 [Example 27a, 1-[4-[4-[1-(4-chlorophenyl)sulfonylcyclopropyl]-6-[(3S)-3-methylmorpholin-4-yl]pyrimidin-2-yl]phenyl]-3-cyclobutylurea]
4.25	C[C@H]1COCCN1c1cc(C2(S(=O)(=O)c3ccc(Cl)cc3)CC2)nc(-c2ccc(NC(=O)Nc3ccccn3)cc2)n1 [Example 27b, 1-[4-[4-[1-(4-chlorophenyl)sulfonylcyclopropyl]-6-[(3S)-3-methylmorpholin-4-yl]pyrimidin-2-yl]phenyl]-3-pyridin-2-ylurea]
14	CC(C)CNC(=O)Nc1ccc(-c2nc(N3CCOC[C@@H]3C)cc(C3(S(=O)(=O)c4ccc(Cl)cc4)CC3)n2)cc1 [Example 27c, 1-[4-[4-[1-(4-chlorophenyl)sulfonylcyclopropyl]-6-[(3S)-3-methylmorpholin-4-yl]pyrimidin-2-yl]phenyl]-3-(2-methylpropyl)urea]
3.07	CC(C)NC(=O)Nc1ccc(-c2nc(N3CCOC[C@@H]3C)cc(C3(S(=O)(=O)c4ccc(Cl)cc4)CC3)n2)cc1 [Example 27d, 1-[4-[4-[1-(4-chlorophenyl)sulfonylcyclopropyl]-6-[(3S)-3-methylmorpholin-4-yl]pyrimidin-2-yl]phenyl]-3-propan-2-ylurea]
3.02	CCCNC(=O)Nc1ccc(-c2nc(N3CCOC[C@@H]3C)cc(C3(S(=O)(=O)c4ccc(Cl)cc4)CC3)n2)cc1 [Example 27i, 3-[4-[4-[1-(4-chlorophenyl)sulfonylcyclopropyl]-6-[(3S)-3-methylmorpholin-4-yl]pyrimidin-2-yl]phenyl]-1-propylurea]
7.61	C[C@H]1COCCN1c1cc(C2(S(=O)(=O)c3ccc(Cl)cc3)CC2)nc(-c2ccc(NC(=O)Nc3ccc(C(F)(F)F)cc3)cc2)n1 [Example 27j, 1-[4-[4-[1-(4-chlorophenyl)sulfonylcyclopropyl]-6-[(3S)-3-methylmorpholin-4-yl]pyrimidin-2-yl]phenyl]-3-[4-(trifluoromethyl)phenyl]urea]
4.62	C[C@H]1COCCN1c1cc(C2(S(=O)(=O)c3ccc(Cl)cc3)CC2)nc(-c2ccc(NC(=O)NC(C)(C)CO)cc2)n1 [Example 27k, 1-[4-[4-[1-(4-chlorophenyl)sulfonylcyclopropyl]-6-[(3S)-3-methylmorpholin-4-yl]pyrimidin-2-yl]phenyl]-3-(1-hydroxy-2-methylpropan-2-yl)urea]
1.12	C[C@H]1COCCN1c1cc(C2(S(=O)(=O)c3ccc(Cl)cc3)CC2)nc(-c2ccc(NC(=O)NCCCO)cc2)n1 [Example 27l, 1-[4-[4-[1-(4-chlorophenyl)sulfonylcyclopropyl]-6-[(3S)-3-methylmorpholin-4-yl]pyrimidin-2-yl]phenyl]-3-(3-hydroxypropyl)urea]
1.44	C[C@H]1COCCN1c1cc(C2(S(=O)(=O)c3ccc(Cl)cc3)CC2)nc(-c2ccc(NC(=O)Nc3cnn(C)c3)cc2)n1 [Example 27m, 1-[4-[4-[1-(4-chlorophenyl)sulfonylcyclopropyl]-6-[(3S)-3-methylmorpholin-4-yl]pyrimidin-2-yl]phenyl]-3-(1-methylpyrazol-4-yl)urea]
2.53	C[C@H]1COCCN1c1cc(C2(S(=O)(=O)c3ccccn3)CC2)nc(-c2ccc(NC(=O)NC3CCC3)cc2)n1 [Example 28a, 3-cyclobutyl-1-[4-[4-[(3S)-3-methylmorpholin-4-yl]-6-(1-pyridin-2-ylsulfonylcyclopropyl)pyrimidin-2-yl]phenyl]urea]
1.49	C[C@H]1COCCN1c1cc(C2(S(=O)(=O)c3ccccn3)CC2)nc(-c2ccc(NC(=O)Nc3ccccn3)cc2)n1 [Example 28b, 1-[4-[4-[(3S)-3-methylmorpholin-4-yl]-6-(1-pyridin-2-ylsulfonylcyclopropyl)pyrimidin-2-yl]phenyl]-3-pyridin-2-ylurea]
8.47	CC(C)CNC(=O)Nc1ccc(-c2nc(N3CCOC[C@@H]3C)cc(C3(S(=O)(=O)c4ccccn4)CC3)n2)cc1 [Example 28c, 1-[4-[4-[(3S)-3-methylmorpholin-4-yl]-6-(1-pyridin-2-ylsulfonylcyclopropyl)pyrimidin-2-yl]phenyl]-3-(2-methylpropyl)urea]
2.37	CC(C)NC(=O)Nc1ccc(-c2nc(N3CCOC[C@@H]3C)cc(C3(S(=O)(=O)c4ccccn4)CC3)n2)cc1 [Example 28d, 1-[4-[4-[(3S)-3-methylmorpholin-4-yl]-6-(1-pyridin-2-ylsulfonylcyclopropyl)pyrimidin-2-yl]phenyl]-3-propan-2-ylurea]
0.434	CNC(=O)Nc1ccc(-c2nc(N3CCOC[C@@H]3C)cc(C3(S(=O)(=O)c4ccccn4)CC3)n2)cc1 [Example 28e, 3-methyl-1-[4-[4-[(3S)-3-methylmorpholin-4-yl]-6-(1-pyridin-2-ylsulfonylcyclopropyl)pyrimidin-2-yl]phenyl]urea]
67.4	C[C@H]1COCCN1c1cc(C2(S(=O)(=O)c3ccccn3)CC2)nc(-c2ccc(NC(=O)NCCN(C)C)cc2)n1 [Example 28f, 3-(2-dimethylaminoethyl)-1-[4-[4-[(3S)-3-methylmorpholin-4-yl]-6-(1-pyridin-2-ylsulfonylcyclopropyl)pyrimidin-2-yl]phenyl]urea]
0.93	CCCNC(=O)Nc1ccc(-c2nc(N3CCOC[C@@H]3C)cc(C3(S(=O)(=O)c4ccccn4)CC3)n2)cc1 [Example 28h, 3-[4-[4-[(3S)-3-methylmorpholin-4-yl]-6-(1-pyridin-2-ylsulfonylcyclopropyl)pyrimidin-2-yl]phenyl]-1-propylurea]
1.53	C[C@H]1COCCN1c1cc(C2(S(=O)(=O)c3ccccn3)CC2)nc(-c2ccc(NC(=O)Nc3ccc(C(F)(F)F)cc3)cc2)n1 [Example 28i, 1-[4-[4-[(3S)-3-methylmorpholin-4-yl]-6-(1-pyridin-2-ylsulfonylcyclopropyl)pyrimidin-2-yl]phenyl]-3-[4-(trifluoromethyl)phenyl]urea]
5.57	C[C@H]1COCCN1c1cc(C2(S(=O)(=O)c3ccccn3)CC2)nc(-c2ccc(NC(=O)NC(C)(C)CO)cc2)n1 [Example 28j, 3-(1-hydroxy-2-methylpropan-2-yl)-1-[4-[4-[(3S)-3-methylmorpholin-4-yl]-6-(1-pyridin-2-ylsulfonylcyclopropyl)pyrimidin-2-yl]phenyl]urea]
0.954	C[C@H]1COCCN1c1cc(C2(S(=O)(=O)c3ccccn3)CC2)nc(-c2ccc(NC(=O)NCCCO)cc2)n1 [Example 28k, 3-(3-hydroxypropyl)-1-[4-[4-[(3S)-3-methymorpholin-4-yl]-6-(1-pyridin-2-ylsulfonylcyclopropyl)pyrimidin-2-yl]phenyl]urea]
0.442	C[C@H]1COCCN1c1cc(C2(S(=O)(=O)c3ccccn3)CC2)nc(-c2ccc(NC(=O)Nc3cnn(C)c3)cc2)n1 [Example 28l, 1-[4-[4-[(3S)-3-methylmorpholin-4-yl]-6-(1-pyridin-2-ylsulfonylcyclopropyl)pyrimidin-2-yl]phenyl]-3-(1-methylpyrazol-4-yl)urea]
4.2	C[C@H]1COCCN1c1cc(C2(S(C)(=O)=O)CC2)nc(-c2ccc(NC(N)=O)cc2)n1 [Example 29, [4-[4-[(3S)-3-Methylmorpholin-4-yl]-6-(1-methylsulfonylcyclopropyl)pyrimidin-2-yl]phenyl]urea]
25	C[C@H]1COCCN1c1cc(C2(S(=O)(=O)c3cc(F)cc(F)c3)CCNCC2)nc(-c2ccc(NC(=O)NC3CC3)cc2)n1 [Example 30, 3-Cyclopropyl-1-[4-[4-[4-(3,5-difluorophenyl)sulfonylpiperidin-4-yl]-6-[(3S)-3-methylmorpholin-4-yl]pyrimidin-2-yl]phenyl]urea]
4.52	CC(C)NC(=O)Nc1ccc(-c2nc(N3CCOC[C@@H]3C)cc(C3(S(=O)(=O)CCCO)CC3)n2)cc1 [Example 31, 1-[4-[4-[1-(3-Hydroxypropylsulfonyl)cyclopropyl]-6-[(3S)-3-methylmorpholin-4-yl]pyrimidin-2-yl]phenyl]-3-propan-2-ylurea]
4.97	C[C@H]1COCCN1c1cc(C2(S(=O)(=O)CCCO)CC2)nc(-c2ccc(NC(=O)NC3CCC3)cc2)n1 [Example 31b, 3-cyclobutyl-1-[4-[4-[1-(3-hydroxypropylsulfonyl)cyclopropyl]-6-[(3S)-3-methylmorpholin-4-yl]pyrimidin-2-yl]phenyl]urea]
